Data published in paper PMC7948405, “Small-molecule control of neurotransmitter sulfonation” (The Journal of Biological Chemistry, 2020).

Experiments:
Assay in all cases: Initial-rate inhibition of SULT-catalyzed 1-HP sulfonation
Assay type in all cases: biochemical
[1] = biological target: T1, SULT1A3 (Homo sapiens, UniProt P0DMM9); settings: parentheses 1 SD; for Ki: in vitro initial rate, 1-HP 5.0 μM, PAPS 0.50 mM, pH 7.5, 25 °C; for % Inhibition at saturation: in vitro, saturating inhibitor
T1 construct: E. coli–optimized SULT coding regions were inserted into a pGEX-6P expression vector; N-His/GST/MBP triple tag (PreScission-cleavable) (N, cleaved yes); made in house; host or cells: E. coli BL21(DE3)
Experimental: (§1) Figure 3 Affinity, specificity, and binding sites of CMP12 and CMP13. A and B, inhibition studies. Initial rates of SULT-catalyzed 1-HP sulfonation are plotted as a function of inhibitor concentration. Rates are normalized to the rate observed in the absence of the inhibitor. Inhibition of the major SULT isoforms found in the brain and liver were tested. SULT activity was monitored via the sulfonation-dependent change in 1-HP fluorescence (λex = 325 nm, λem = 375 nm ([15], [28])). Reaction conditions were as follows: SULT (20 nM, active sites), PAPS (0.50 mM, 17 × Km), 1-HP (5.0 μM, 61 × Km), KPO4 (50 mM), pH 7.5, 25(±2) °C. Less than 5% of the concentration-limiting substrate was converted to the product at reaction endpoints. Each data point is the average of three independent determinations. The lines passing through the data are least-squares fits to a noncompetitive partial-inhibition model (see Experiment and Initial rate). C, CMP8 competes with CMP12 and CMP13. Initial rates at saturating CMP12 or CMP13 are plotted as a function of CMP8 concentration. Rates are normalized to the rate observed in the absence of the inhibitor. […] Lines passing through the data are the predictions of a noncompetitive partial-inhibition model in which inhibitors compete for the same site (see Experiment and Binding competition). SULT, sulfotransferase; PAP, 3′-phosphoadenosine-5′-phosphate; SULT1A3, sulfotransferase 1A3; PAPS, 3’-phosphoadenosine 5’-phosphosulfate; 1-HP, 1-hydroxypyrene.
(§2) Initial-rate inhibition parameters were obtained from classical initial-rate studies ([16], [28], [43]). Reactions were initiated by addition of PAPS (0.50 mM, 17 × Km) to a solution containing SULT1A3 (20 nM, active sites), inhibitor (0.2–20 × Ki), 1-HP (5.0 μM, 60 × Km), and KPO4 (50 mM), pH 7.5, 25(±2) °C. Reaction progress was monitored via the fluorescence change associated with 1-HP sulfonation (λex = 325 nm, λem = […] ([15], [28])). Less than 5% of the 1-HP was converted to the product at reaction endpoints. Ki and kcat inh (i.e., turnover at saturating inhibitor and substrate) were obtained by fitting to the following quadratic equation for noncompetitive, partial inhibition at [S] >> Km ([44]):(7) v/Vmax=([Etot]+[ESI](α-1))/[Etot] where(8) α=kcat inh/kcat and(9) [ESI]=[([E]tot+[I]tot+Ki)−[([E]tot+[I]tot+Ki)^2−4·[I]tot·[E]tot]^1/2]/2

[2] = biological target: T2, SULT1E1 (Homo sapiens, UniProt P49888); settings: concentrations as high as 10 μM
T2 construct: E. coli–optimized SULT coding regions were inserted into a pGEX-6P expression vector; N-His/GST/MBP triple tag (PreScission-cleavable) (N, cleaved yes); made in house; host or cells: E. coli BL21(DE3)
T2 sequence (P49888 1-294): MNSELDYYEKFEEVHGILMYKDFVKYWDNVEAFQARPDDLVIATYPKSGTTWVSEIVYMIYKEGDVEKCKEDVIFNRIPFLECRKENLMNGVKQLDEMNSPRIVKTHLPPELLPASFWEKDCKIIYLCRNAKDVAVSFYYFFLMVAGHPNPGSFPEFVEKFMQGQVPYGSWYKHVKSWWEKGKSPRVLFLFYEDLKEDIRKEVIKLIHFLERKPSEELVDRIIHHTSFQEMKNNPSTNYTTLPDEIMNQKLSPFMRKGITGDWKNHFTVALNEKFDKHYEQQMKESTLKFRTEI
Experimental: (§3) The affinity and specificity of CMP12 and CMP13 were evaluated in initial-rate studies using the four major SULT isoforms expressed in the brain and liver ([27])—SULT1A1, SULT1E1, SULT1A3, and SULT2A1. Initial-rate vs [inhibitor] plots are presented in Fig. 3, A–B. The data are normalized to the rates in the absence of inhibitor. Solid lines passing through the data are the predictions of least-squares fitting to a single-binding-site, partial-inhibition model. The best-fit parameters are found in Table 1. […] Both compounds are partial inhibitors, and their percent inhibition values at saturation (83 and 98%, respectively) agree well with the predicted values.
as §1, §2

[3] = biological target: T3, SULT1A1 (Homo sapiens, UniProt P50225)
T3 construct: E. coli–optimized SULT coding regions were inserted into a pGEX-6P expression vector; N-His/GST/MBP triple tag (PreScission-cleavable) (N, cleaved yes); made in house; host or cells: E. coli BL21(DE3)
Experimental: as §3, §1, §2

[4] = biological target: T4, SULT2A1 (Homo sapiens, UniProt Q06520); settings: concentrations as high as 10 μM
T4 construct: E. coli–optimized SULT coding regions were inserted into a pGEX-6P expression vector; N-His/GST/MBP triple tag (PreScission-cleavable) (N, cleaved yes); made in house; host or cells: E. coli BL21(DE3)
T4 sequence (Q06520 1-285): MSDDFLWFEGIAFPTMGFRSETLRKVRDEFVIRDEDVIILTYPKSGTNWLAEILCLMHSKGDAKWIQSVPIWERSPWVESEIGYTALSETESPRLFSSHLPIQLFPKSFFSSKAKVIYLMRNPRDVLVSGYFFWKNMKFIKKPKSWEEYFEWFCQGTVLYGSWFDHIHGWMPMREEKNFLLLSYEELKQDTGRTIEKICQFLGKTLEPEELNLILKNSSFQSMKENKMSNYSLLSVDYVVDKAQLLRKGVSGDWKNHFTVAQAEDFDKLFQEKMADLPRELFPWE
Experimental: as §3, §1, §2

T1 sequence (P0DMM9 whole entry): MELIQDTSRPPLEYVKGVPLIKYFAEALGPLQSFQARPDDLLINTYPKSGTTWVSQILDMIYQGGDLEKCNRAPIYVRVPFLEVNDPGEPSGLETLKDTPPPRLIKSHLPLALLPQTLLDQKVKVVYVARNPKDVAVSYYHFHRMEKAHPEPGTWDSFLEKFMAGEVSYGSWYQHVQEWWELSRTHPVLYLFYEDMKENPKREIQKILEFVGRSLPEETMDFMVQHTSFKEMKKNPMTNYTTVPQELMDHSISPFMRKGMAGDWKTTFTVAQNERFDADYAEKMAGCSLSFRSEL
T3 sequence (P50225 whole entry): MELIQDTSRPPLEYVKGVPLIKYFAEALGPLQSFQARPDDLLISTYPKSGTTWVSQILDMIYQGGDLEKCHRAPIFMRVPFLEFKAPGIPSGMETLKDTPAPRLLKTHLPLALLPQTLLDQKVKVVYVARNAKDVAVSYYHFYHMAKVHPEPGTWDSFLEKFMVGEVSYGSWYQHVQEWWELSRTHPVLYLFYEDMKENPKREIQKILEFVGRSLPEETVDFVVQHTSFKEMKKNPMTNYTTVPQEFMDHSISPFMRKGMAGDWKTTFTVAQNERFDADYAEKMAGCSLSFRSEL

| Ki [1] [nM] | % Inhibition at saturation [1] | inhibition of SULT1E1 [2] | inhibition of SULT1A1 ([3]; concentrations as high as 10 μM) | inhibition of SULT2A1 [4] | Ki ([3]; SULT1A1, initial rate) [nM] | Compound |
| --- | --- | --- | --- | --- | --- | --- |
| 70 | 83 (4) % | no detectable inhibition | no detectable inhibition | no detectable inhibition | – | CC(C)Cc1ccc2cc(CCC(N)=O)ccc2n1 [CMP12] |
| 11 | 98 (2) % | behaved similarly | – | behaved similarly | 3100 ± 200 | CC(C)Cc1ccc2cc(/C=C/C(N)=O)cnc2n1 [CMP13] |
